Structures can show the parent of a compound that is named as a salt.
How the values were obtained:
[1] = Pharmacokinetic parameters following intravenous and oral administration in rats; type: in vivo, male Wistar rats; settings: for clearance: read-out: CLplasma (converted); for half-life: read-out: t½ (converted)
Procedure: (§1) B-2. Determination of Pharmacokinetic Parameters Following Intravenous and Oral Administration
(§2) The pharmacokinetic parameters of the compounds according to the invention were determined in male Wistar rats and/or in female beagles and/or in cynomolgus monkeys and/or in male CD-1 mice. Intravenous administration in the case of mice and rats was carried out by means of a species-specific plasma/DMSO formulation, and in the case of dogs and monkeys by means of a water/PEG400/ethanol formulation. In all species, oral administration of the dissolved substance was performed via gavage, based on a water/PEG400/ethanol formulation.
(§3) An internal standard (which may also be a chemically unrelated substance) was added to the samples of the compounds of the invention, calibration samples and qualifiers, and there followed protein precipitation by means of acetonitrile in excess. Addition of a buffer solution matched to the LC conditions, and subsequent vortexing, was followed by centrifugation at 1000 g. The supernatant was analysed by LC-MS/MS using C18 reversed-phase columns and variable mobile phase mixtures. The substances were quantified via the peak heights or areas from extracted ion chromatograms of specific selected ion monitoring experiments.
(§4) The plasma concentration/time plots determined were used to calculate the pharmacokinetic parameters such as AUC, Cmax, t1/2 (terminal half-life), F (bioavailability), MRT (mean residence time) and CL (clearance), by means of a validated pharmacokinetic calculation program.
(§5) Since the substance quantification was performed in plasma, it was necessary to determine the blood/plasma distribution of the substance in order to be able to adjust the pharmacokinetic parameters correspondingly.
(§6) For this purpose, a defined amount of substance was incubated in K3 EDTA whole blood of the species in question in a rocking roller mixer for 20 min. After centrifugation at 1000 g, the plasma concentration was measured (by means of LC-MS/MS; see above) and determined by calculating the ratio of the Cblood/Cplasma value.

[2] = molecular target: T1, recombinant guanylate cyclase reporter cell line (Rattus norvegicus, UniProt P20595); assay: Effect on a recombinant guanylate cyclase reporter cell line; type: cell-based
T1 construct: expressed in transfected cells; CHO by own knowledge of the cited Wunder et al. 2005
T1 sequence (P20595 1-619): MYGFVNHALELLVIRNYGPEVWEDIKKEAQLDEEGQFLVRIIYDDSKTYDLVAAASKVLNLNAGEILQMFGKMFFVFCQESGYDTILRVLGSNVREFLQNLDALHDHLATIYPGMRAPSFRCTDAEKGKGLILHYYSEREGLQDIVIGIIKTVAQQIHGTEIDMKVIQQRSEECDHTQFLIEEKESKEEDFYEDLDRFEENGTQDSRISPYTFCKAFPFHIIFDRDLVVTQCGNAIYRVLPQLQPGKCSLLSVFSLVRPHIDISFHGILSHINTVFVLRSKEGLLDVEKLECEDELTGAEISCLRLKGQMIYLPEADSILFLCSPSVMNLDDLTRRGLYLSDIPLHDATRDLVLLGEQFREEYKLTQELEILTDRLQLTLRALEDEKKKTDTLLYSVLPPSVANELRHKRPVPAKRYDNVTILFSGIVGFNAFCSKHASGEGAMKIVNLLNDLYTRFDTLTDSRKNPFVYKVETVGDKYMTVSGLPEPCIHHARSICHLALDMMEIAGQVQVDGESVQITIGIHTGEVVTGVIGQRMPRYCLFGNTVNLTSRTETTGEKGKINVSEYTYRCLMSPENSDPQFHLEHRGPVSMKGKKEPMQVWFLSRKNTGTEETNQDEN
T1 sequence (P19686 1-690 partner): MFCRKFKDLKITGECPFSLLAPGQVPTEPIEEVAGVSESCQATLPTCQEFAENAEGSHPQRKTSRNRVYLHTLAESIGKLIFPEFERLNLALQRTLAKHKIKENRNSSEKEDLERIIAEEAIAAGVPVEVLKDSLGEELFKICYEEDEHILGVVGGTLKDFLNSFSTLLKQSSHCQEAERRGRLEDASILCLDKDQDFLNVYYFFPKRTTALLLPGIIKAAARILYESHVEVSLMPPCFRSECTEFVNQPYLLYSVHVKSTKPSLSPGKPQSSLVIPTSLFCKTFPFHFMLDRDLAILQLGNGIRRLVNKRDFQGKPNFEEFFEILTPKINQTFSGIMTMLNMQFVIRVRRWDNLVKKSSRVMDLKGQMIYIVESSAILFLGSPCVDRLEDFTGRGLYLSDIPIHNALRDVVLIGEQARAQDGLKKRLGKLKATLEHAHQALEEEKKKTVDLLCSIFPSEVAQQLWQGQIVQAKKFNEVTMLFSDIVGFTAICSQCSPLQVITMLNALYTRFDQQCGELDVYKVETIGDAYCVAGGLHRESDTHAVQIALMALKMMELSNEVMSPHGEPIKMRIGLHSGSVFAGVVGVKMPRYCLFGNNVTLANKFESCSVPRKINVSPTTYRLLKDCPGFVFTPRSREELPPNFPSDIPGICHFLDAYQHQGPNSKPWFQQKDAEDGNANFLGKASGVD
Procedure: B-1. Effect on a Recombinant Guanylate Cyclase Reporter Cell Line
The cellular activity of the compounds according to the invention was determined using a recombinant guanylate cyclase reporter cell line, as described in F. Wunder et al., Anal. Biochem. 339, 104-112 (2005).

[3] = Pharmacokinetic parameters following intravenous and oral administration in dogs; type: in vivo, female beagles; settings: for half-life: read-out: t½ (converted)
Procedure: as §1, §2, §3, §4, §5, §6

[4] = male, Wistar, rat, plasma, iv, intravenous administration
[5] = male, Wistar, rat, plasma, iv, intravenous administration, read-out: MRT
[6] = male, Wistar, rat, plasma, po, oral administration (p.o.), read-out: MRT
[7] = male, Wistar, rat, plasma, po, oral administration (p.o.)
[8] = female, beagle, dog, plasma, intravenous administration (i.v.)
[9] = female, beagle, dog, plasma, oral administration (p.o.)

Row | SMILES | AUCnorm ([1]; intravenous administration) [kg·h/L] | clearance [1, 4] [mL/min/kg] | MRT [1, 5] [h] | half-life [1, 4] [h] | MRT [1, 6] [h] | half-life [1, 7] [h] | AUCnorm ([1]; oral administration (p.o.)) [kg·h/L] | F ([1]; oral administration (p.o.)) [%] | EC50 [2] [nM] | MEC (minimum effective concentration) [2] [nM] | other results
1 | O=C(O)c1cnn(C2CCCN(c3cc(Cl)ccc3-c3ccc(N4CCN(CC5CC5)CC4)cc3)C2)c1C(F)(F)F (single isomer, unassigned) [Example 10, 1-[1-[5-Chloro-2-[4-[4-(cyclopropylmethyl)piperazin-1-yl]phenyl]phenyl]-3-piperidyl]-5-(trifluoromethyl)pyrazole-4-carboxylic acid hydrochloride] | 1.37 | 12.2 | 2.39 | 1.89 | 4.04 | 3.41 | 0.52 | 37.4 | 10.3 | 2.0 | 
2 | O=C(O)c1cnn(-c2cccc(-c3cc(Cl)ccc3-c3ccc(N4CCN(CC5CC5)CC4)cc3)n2)c1C(F)(F)F [Comparative Example 174 (WO2012/058132), reference compound] | 0.77 | 21.7 | 2.78 | 2.33 | 8.4 | 3.6 | 0.63 | 81.8 |  |  | MRT [3, 8]: 7.23 h; clearance ([3]; female, beagle, dog, plasma, intravenous administration (i.v.), read-out: CLplasma (converted)): 3.33 mL/min/kg; half-life [3, 8]: 10.8 h; MRT [3, 9]: 6.1 h; half-life [3, 9]: 7.05 h; AUCnorm ([3]; intravenous administration (i.v.)): 5.00 kg·h/L; AUCnorm ([3]; oral administration (p.o.)): 2.08 kg·h/L; F ([3]; oral administration (p.o.)): 41.6%
3 | O=C(O)c1cnn(C2CCCN(c3cc(Cl)ccc3-c3ccc(N4CCN(CC5CC5)CC4)cc3)C2)c1C(F)F (single isomer, unassigned) [Example 5, 1-(1-{4-Chloro-4′-[4-(cyclopropylmethyl)piperazin-1-yl][biphenyl]-2-yl}piperidin-3-yl)-5-(difluoromethyl)-1H-pyrazole-4-carboxylic acid hydrochloride] | 1.23 | 13.5 | 2.88 | 2.43 | 7.53 | 3.76 | 0.70 | 58.2 | 3.6 | <0.3 | 
4 | CC(C)CN1CCN(c2ccc(-c3ccc(Cl)cc3N3CCCC(n4ncc(C(=O)O)c4C(F)F)C3)cc2)CC1 (single isomer, unassigned) [Example 1, 1-[1-{4-Chloro-4′-[4-(2-methylpropyl)piperazin-1-yl][1,1′-biphenyl]-2-yl}piperidin-3-yl]-5-(difluoromethyl)-1H-pyrazole-4-carboxylic acid hydrochloride] | 1.77 | 9.33 | 2.24 | 1.64 | 6.28 | 3.24 | 0.57 | 31.4 | 9.2 | 2.3 | 
5 | O=C(O)c1cnn(C2CCCN(c3cc(Cl)ccc3-c3ccc(N4CCN(CC(F)(F)F)CC4)cc3)C2)c1C(F)F (single isomer, unassigned) [Example 7, 1-[1-[5-Chloro-2-[4-[4-(2,2,2-trifluoroethyl)piperazin-1-yl]phenyl]phenyl]-3-piperidyl]-5-(difluoromethyl)pyrazole-4-carboxylic acid] | 7.23 |  | 4.41 | 3.83 | 7.32 |  | 4.04 | 56.1 | 13.7 | 1.6 | CLplasma ([1]; intravenous administration): 2.33 mL/min/kg; t½ ([1]; oral administration (p.o.)): 3.63 h
6 | CC(C)CN1CCN(c2ccc(-c3ccc(Cl)cc3N3CCCC(n4ncc(C(=O)O)c4C(F)(F)F)C3)cc2)CC1 (single isomer, unassigned) [Example 8, 1-[1-{4-Chloro-4′-[4-(2-methylpropyl)piperazin-1-yl][1,1′-biphenyl]-2-yl}piperidin-3-yl]-5-(trifluoromethyl)-1H-pyrazole-4-carboxylic acid] |  |  |  |  |  |  |  |  | 40 | 6.5 | 
7 | O=C(O)c1cnn(C2CCCN(c3cc(Cl)ccc3-c3ccc(N4CCN(CC(F)(F)F)CC4)cc3)C2)c1C(F)F (single isomer, unassigned) [Example 6, 1-[1-[5-Chloro-2-[4-[4-(2,2,2-trifluoroethyl)piperazin-1-yl]phenyl]phenyl]-3-piperidyl]-5-(difluoromethyl)pyrazole-4-carboxylic acid] | 2.29 |  |  |  |  |  | 2.11 | 91.7 | 19.3 | 1.6 | CLplasma ([1]; intravenous administration): 7.33 mL/min/kg; MRT ([1]; intravenous administration): 4.16 h; t½ ([1]; intravenous administration): 5.13 h; MRT ([1]; oral administration (p.o.)): 14.2 h; t½ ([1]; oral administration (p.o.)): 7.37 h
8 | CCCN1CCN(c2ccc(-c3ccc(Cl)cc3N3CCCC(n4ncc(C(=O)O)c4C(F)F)C3)cc2)CC1 (single isomer, unassigned) [Example 4, 1-{1-[4-Chloro-4′-(4-propylpiperazin-1-yl)[biphenyl]-2-yl]piperidin-3-yl}-5-(difluoromethyl)-1H-pyrazole-4-carboxylic acid hydrochloride] | 1.40 | 12 | 2.62 | 2.09 | 5.91 | 3.02 | 0.84 | 59.9 | 3.2 | 0.3 | 
9 | O=C(O)c1cnn(C2CCCN(c3cc(Cl)ccc3-c3ccc(N4CCN(CC(F)(F)F)CC4)cc3)C2)c1C(F)(F)F (single isomer, unassigned) [Example 11, 1-[1-[5-Chloro-2-[4-[4-(2,2,2-trifluoroethyl)piperazin-1-yl]phenyl]phenyl]-3-piperidyl]-5-(trifluoromethyl)pyrazole-4-carboxylic acid] |  |  |  |  |  |  |  |  | 5.2 | 0.6 | 

Reference: patent publication US20230346777A1, “USE OF SGC ACTIVATORS FOR THE TREATMENT OF OPHTHALMOLOGIC DISEASES” (Bayer Aktiengesellschaft, priority 2020, published 2023)
